Assay results: patent US20050113286A1, “Methods for treating congestive heart failure” (priority 2002, published 2005)

Legend:
[1] = test system: acute decompensated heart failure; conditions: compared with milrinone; cited from earlier work
[2] = test system: patients with chronic decompensated HF; assay: FUSION I: use of IV inotropic agents during study visits; assay type: in vivo, human
Excerpt: Patients in all treatment groups were allowed to receive any long-term cardiac or noncardiac medications, including IV diuretics, according to investigator discretion. At each visit, the investigator ensured that optimal medical treatment regimens were established. Patients who were randomized to usual care only were allowed to receive positive inotropic agents (milrinone, dobutamine, or dopamine) only if the investigator believed that inotropic support was required to alleviate symptomatic HF and yield hemodynamic stability. Inotropic agents were not permitted in the nesiritide groups unless they were urgently required to prevent hospitalization. During hospitalization, there was no restriction on the use of inotropic agents or nesiritide, regardless of treatment group.

[3] = test system: patients with chronic decompensated HF; assay: FUSION I: quality of life, Minnesota Living With HF questionnaire; assay type: in vivo, human; conditions: weeks 4, 8, and 12
Procedure: (§1) At weeks 4, 8, and 12, the change from baseline global clinical status was assessed by both the patient and the investigator; assessments were rated on a 7-point ordinal scale from markedly worse (−3) to markedly better (+3).^1l,12 In addition, patients' assessment of quality of life was measured at baseline and at weeks 4, 8, and 12 using the Minnesota Living With HF questionnaire. (Rector TS, Kubo SH, Cohn J N. Patients' self-assessment of their congestive heart failure. Part 2: Content, reliability and validity of a new measure, The Minnesota Living with Heart Failure Questionnaire. Heart Failure 1987;October/November:198-209.)

[4] = test system: patients with chronic decompensated HF; assay: FUSION I: global clinical status, 7-point ordinal scale; assay type: in vivo, human; conditions: for Investigators' assessment: Reported improvement from baseline (%): moderately or markedly improved; for Investigators' assessment: Mean change from baseline / Patients' assessment: Mean change from baseline: scale −3 to +3
Procedure: as §1

[5] = test system: symptoms of acute decompensated HF; conditions: VMAC trial; cited from earlier work
[6] = test system: patients with acutely decompensated congestive heart failure; conditions: in vivo; cited from earlier work
[7] = all patients who received nesiritide
[8] = week 4, both nesiritide groups, count in cell 125
[9] = week 12, 0.01 μg/kg/min, count in cell 51

For “Nesiritide: a recombinant form of human B-type natriuretic peptide (BNP)”, the Length of stay [1] is listed as “shorter length of stay”, the Readmissions [1] is listed as “fewer readmissions” and the “Patients receiving IV inotropic agents during study visits through week 12, number” value ([2]; 0.005 μg/kg/min, n = 72) is listed as 0. For the same substance, the “Patients receiving IV inotropic agents during study visits through week 12, %” value ([2]; 0.01 μg/kg/min, n = 69) was 3%, the “Patients receiving IV inotropic agents during study visits through week 12, number” value ([2]; 0.01 μg/kg/min, n = 69) was 2 and the “Patients who also received an inotropic agent during a study visit because of decompensated HF, %” value [2, 7] was less than 2%. For the same substance, the “Patients who also received an inotropic agent during a study visit because of decompensated HF, number” value [2, 7] was 2, the “Quality of life, between treatment groups” value [3] was “no significant differences” and the “Quality of life compared with baseline” value ([3]; all treatment groups) was “significant improvement”. For the same substance, the “Global clinical status, investigators' assessments, compared with usual-care group” value ([4]; 0.01-μg/kg/min group, p≦0.004 at all time points) was “significant improvement”, the “Global clinical status, patients' assessments, among treatment groups” value ([4]; all treatment groups) was “no significant differences” and the “Patients' assessment: Reported improvement from baseline (%)” value (shortened to “Patients' assessment … (%)”) ([4]; week 4, 0.005 μg/kg/min, count in cell 62) was 62 (50%). For the same substance, the “Investigators' assessment: Reported improvement from baseline (%)” value (from here on “Investigators' assessment … (%)”) ([4]; week 4, 0.005 μg/kg/min, count in cell 63) was 63 (29%), the “Investigators' assessment: Mean change from baseline” value ([4]; week 4, 0.005 μg/kg/min) was 0.9 ± 1.28 and the “Patients' assessment: Mean change from baseline” value ([4]; week 4, 0.005 μg/kg/min) was 1.3 ± 1.33. The “Patients' assessment … (%)” value ([4]; week 4, 0.01 μg/kg/min, count in cell 63) was 63 (51%), the “Investigators' assessment … (%)” value ([4]; week 4, 0.01 μg/kg/min, count in cell 62) was 62 (47%) and the “Patients' assessment: Mean change from baseline” value ([4]; week 4, 0.01 μg/kg/min) was 1.4 ± 1.20. For the same substance, the “Investigators' assessment: Mean change from baseline” value ([4]; week 4, 0.01 μg/kg/min, p < 0.05 compared with usual care) was 1.1 ± 1.28, the “Patients' assessment … (%)” value [4, 8] was 125 (50%) and the “Investigators' assessment … (%)” value [4, 8] was 125 (38%). For the same substance, the “Patients' assessment: Mean change from baseline” value ([4]; week 4, both nesiritide groups) was 1.4 ± 1.26, the “Investigators' assessment: Mean change from baseline” value ([4]; week 4, both nesiritide groups, p < 0.05 compared with usual care) was 1.0 ± 1.28 and the “Patients' assessment … (%)” value ([4]; week 8, 0.005 μg/kg/min, count in cell 53) was 53 (72%). The “Investigators' assessment … (%)” value ([4]; week 8, 0.005 μg/kg/min, count in cell 50) was 50 (54%), the “Patients' assessment: Mean change from baseline” value ([4]; week 8, 0.005 μg/kg/min) was 1.7 ± 1.26 and the “Investigators' assessment: Mean change from baseline” value ([4]; week 8, 0.005 μg/kg/min, p < 0.05 compared with usual care) was 1.3 ± 1.35. For the same substance, the “Patients' assessment … (%)” value ([4]; week 8, 0.01 μg/kg/min, count in cell 56) was 56 (68%), the “Investigators' assessment … (%)” value ([4]; week 8, 0.01 μg/kg/min, count in cell 54) was 54 (59%) and the “Patients' assessment: Mean change from baseline” value ([4]; week 8, 0.01 μg/kg/min) was 1.8 ± 1.26. The “Investigators' assessment: Mean change from baseline” value ([4]; week 8, 0.01 μg/kg/min, p < 0.05 compared with usual care) was 1.6 ± 1.19, the “Patients' assessment … (%)” value ([4]; week 8, both nesiritide groups, count in cell 109) was 109 (70%) and the “Investigators' assessment … (%)” value ([4]; week 8, both nesiritide groups, count in cell 104) was 104 (57%). The “Patients' assessment: Mean change from baseline” value ([4]; week 8, both nesiritide groups) was 1.8 ± 1.25, the “Investigators' assessment: Mean change from baseline” value ([4]; week 8, both nesiritide groups, p < 0.05 compared with usual care) was 1.4 ± 1.27 and the “Patients' assessment … (%)” value ([4]; week 12, 0.005 μg/kg/min, count in cell 54) was 54 (76%). For the same substance, the “Investigators' assessment … (%)” value ([4]; week 12, 0.005 μg/kg/min, count in cell 51) was 51 (55%), the “Patients' assessment: Mean change from baseline” value ([4]; week 12, 0.005 μg/kg/min) was 1.9 ± 1.39 and the “Investigators' assessment: Mean change from baseline” value ([4]; week 12, 0.005 μg/kg/min, p < 0.05 compared with usual care) was 1.4 ± 1.31. The “Patients' assessment … (%)” value [4, 9] was 51 (55%), the “Investigators' assessment … (%)” value [4, 9] was 51 (59%) and the “Patients' assessment: Mean change from baseline” value ([4]; week 12, 0.01 μg/kg/min) was 1.7 ± 1.09. For the same substance, the “Investigators' assessment: Mean change from baseline” value ([4]; week 12, 0.01 μg/kg/min, p < 0.05 compared with usual care) was 1.7 ± 1.16, the “Patients' assessment … (%)” value ([4]; week 12, both nesiritide groups, count in cell 105) was 105 (66%) and the “Investigators' assessment … (%)” value ([4]; week 12, both nesiritide groups, count in cell 102) was 102 (57%). The “Patients' assessment: Mean change from baseline” value ([4]; week 12, both nesiritide groups) was 1.8 ± 1.25, the “Investigators' assessment: Mean change from baseline” value ([4]; week 12, both nesiritide groups, p < 0.05 compared with usual care) was 1.5 ± 1.24 and the “Resolution of the symptoms of acute decompensated HF versus IV diuretics or nitroglycerin” value [5] was “more rapid resolution”. The Ventricular rhythm disturbances [6] was “did not engender ventricular rhythm disturbances”.
